“Also recorded” adds a separate entry of the source.
What was measured:
[1] = Maillard reaction (coloration with glycine, absorbance at 480 nm); format: physicochemical; conditions: for Coloration degree at 480 nm: 10% saccharide, 1% glycine, 50 mM phosphate buffer pH7.0, 100° C., 90 minutes, 1 cm cuvette
Protocol: Solutions of 10% saccharide preparation PI, PII, PIII, PIV or PV prepared in Experiment 4 and 1% glycine in 50 mM phosphate buffer (pH7.0) were incubated at 100° C. for 90 minuets, cooled and determined in 1 cm cuvette for absorbance at 480 nm. As control, maltotriose, maltotetraose, maltopentaose, maltohexaose and maltoheptaose which were used as the starting materials were treated similarly as above and determined for absorbance at 480 nm.
10% High-purity trehalose preparation, purity of 99.5%, obtained by the method in Experiment 17 and 1% glycine in 50 mM phosphate buffer (pH7.0) was incubated at 100° C. for 90 minutes, cooled and measured in lcm cuvette for absorbance at 480 nm. As control, glucose and maltose were treated similarly as above and then measured for absorbance at 480 nm.

[2] = test system: non-reducing saccharide-forming enzyme; format: biochemical, Rhizobium species M-11; conditions: for Composition: newly formed saccharide: 20% substrate, 2 units/g, 40° C., pH7.0, 48 hours; for Composition: residual substrate: non-reducing saccharide-forming enzyme, 48 h, pH 7
Protocol: 20% Aqueous solutions of glucose, maltose, maltotriose, maltotetraose, maltopentaose, maltohexaose or maltoheptaose as substrate were prepared, added with 2 units/g substrate solid of the purified enzyme obtained in Experiment 2, allowed to react at 40° C. and pH7.0 for 48 hours, deionized and analyzed for reaction products on high-performance liquid chromatography using "WAKO BEADS WB-T-330", a product of Wako Pure Chemical Industries, Ltd., Osaka, Japan. The high-performance liquid chromatography was conducted at ambient temperature, where water as eluent was flowed at a rate of 0.5 ml/min and "Model RI-8012", a differential reflactometer commercialized by Tosoh Corp., Tokyo, Japan, was used for analysis.

[3] = molecular target: T1, trehalose-releasing enzyme (Rhizobium sp. M-11, UniProt Q53238); format: biochemical, Rhizobium species M-11; conditions: trehalose-releasing enzyme, 48 h, pH 7
T1 construct: M-11, about 58-68 kDa
T1 sequence (Q53238 1-596): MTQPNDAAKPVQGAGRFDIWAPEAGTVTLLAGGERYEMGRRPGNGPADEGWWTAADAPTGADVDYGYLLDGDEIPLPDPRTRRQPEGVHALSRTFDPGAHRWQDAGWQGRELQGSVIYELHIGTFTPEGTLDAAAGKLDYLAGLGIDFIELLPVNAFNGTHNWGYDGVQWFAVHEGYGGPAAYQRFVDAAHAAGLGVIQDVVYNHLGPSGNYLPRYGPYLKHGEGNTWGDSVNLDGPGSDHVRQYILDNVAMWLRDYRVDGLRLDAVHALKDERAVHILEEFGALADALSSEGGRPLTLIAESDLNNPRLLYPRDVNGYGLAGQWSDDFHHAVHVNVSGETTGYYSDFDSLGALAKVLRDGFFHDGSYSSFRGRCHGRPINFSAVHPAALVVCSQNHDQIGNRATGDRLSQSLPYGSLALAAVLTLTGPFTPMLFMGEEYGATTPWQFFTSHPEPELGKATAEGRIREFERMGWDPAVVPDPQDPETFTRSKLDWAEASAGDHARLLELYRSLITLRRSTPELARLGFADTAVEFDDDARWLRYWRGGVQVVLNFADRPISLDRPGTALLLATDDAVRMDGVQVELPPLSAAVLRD
Protocol: Alpha-glycosyl trehaloses as substrates were prepared in accordance with the method described in Japanese Patent Application No. 349,216/93. More particularly, 20% aqueous solutions of maltotriose, maltotetraose, maltopentaose, maltohexaose or maltoheptaose as reducing partial starch hydrolysate were added with 2 units/g substrate solid of a purified non-reducing saccharide-forming enzyme obtained by the method in […], reacted at 40° C. and pH7.0 for 48 hours, heated for inactivation, filtered, deionized, concentrated in conventional manner and applied to ion exchange column chromatography on a strongly-acidic cation exchange "XT-1016" in sodium form. The ion exchange resin was packed in 3 jacketed-stainless steel columns, inner diameter of 2.0 cm, length of 1 m, and the columns were cascaded, loaded with 5 v/v % reaction saccharide liquid against the resin and injected with 55° C. water at SV0.13 for fractionation while keeping the temperature inside the columns at 55° C., thus obtaining high-purity preparations of non-reducing saccharides with glucose polymerization degrees of 3 or higher.
20% Aqueous solutions of these five types of non-reducing saccharides or alpha-glycosyl trehaloses were prepared, added with 2 units/g substrate solid of the purified trehalose-releasing enzyme obtained in Experiment 15, reacted at 40° C. and pH7.0 for 48 hours, deionized and subjected to high-performance liquid chromatography on "WAKO BEADS WB-T-330" for analysis of reaction products. As control, maltotriose, maltotetraose, maltopentaose, maltohexaose and maltoheptaose were subjected to the purified trehalose-releasing enzyme similarly as above and then analyzed on high-performance liquid chromatography.

[4] = Reducing power by the Somogyi-Nelson method, represented in terms of DE; format: physicochemical
Protocol: The high-purity preparations of the newly formed saccharides were determined for reducing power by the Somogyi-Nelson method and represented in terms of DE.

pig kidney trehalase = experiment: Degradation by pig kidney trehalase; format: biochemical; conditions: trehalose, or trehalose formed from PI-PV; pH5.7, 37° C., 18 hours for the latter
Protocol: In order to purify trehalose from respective reaction products, they were decolored, deionized, concentrated and subjected to column fractionation on a strongly-acidic cation exchange of sodium form "XT-1016", followed by recovering high-purity fractions with trehalose contents of 97% or higher. The fractions were then concentrated to about 65% and allowed to standing at 25° C. for 2 days to crystallize out crystalline trehalose hydrate which was then separated and dried in vacuo to obtain a high-purity preparation with a trehalose content of 99% or higher. The yields against respective starting substrates on dry solid basis were as follows: from glycosyl trehalose, 9.5%; from maltosyl trehalose, 14.9%; from maltotriosyl trehalose, 16.0%; from maltotetraosyl trehalose, 18.5%; and from maltopentaosyl trehalose, 17.7%. […] As evident from the above results, the saccharides formed by subjecting alpha-glycosyl trehaloses to the trehalose-releasing enzyme were identified to be trehalose.

[5] = Acute toxicity test, oral administration in mice; format: in vivo; conditions: mouse, in vivo; oral, mice
Protocol: (§1) Acute toxicity tests were conducted on the non-reducing saccharide preparations PI, PII, PIII, PIV and PV prepared in Experiment 4, where they were orally administered to 7 week-old dd mice. […] Thus the LD50 of these saccharides was at least 50 g/kg or higher.
(§2) An acute toxicity test was conducted on a high-purity trehalose preparation obtained by the method in Experiment 17, purity of 99.5%, where it was orally administered in mice. […] Thus its LD50 would be briefly 50 g/kg or higher.

mice = experiment: Acute toxicity test, oral administration in mice; format: in vivo; conditions: oral, mice
Protocol: as §1, §2

[6] = Test for assimilation in vivo (blood sugar and insulin levels); conditions: 30 g oral, healthy men
Protocol: In accordance with the method reported by Atsuji et al., Rinsho Eiyo (Clinical Nutrition), Vol.41, No. 2, pp.200-208 (1972), 30 g of a high-purity trehalose preparation, purity of 99.5%, obtained by the method in Experiment 17 was prepared into 20 w/v % aqueous solution and orally administered to healthy men, age of 26, 27, 28, 29, 30 or 31 years, after which their bloods were periodically sampled and measured for blood sugar and insulin levels. Glucose was used as control.

[7] = Properties of products (hygroscopicity, viscosity, stability, tonicity); format: physicochemical

| SMILES | Coloration degree at 480 nm [1] | Composition: newly formed saccharide [2] | Composition: residual substrate [2] | Composition: residual substrate [3] | other results |
| --- | --- | --- | --- | --- | --- |
| OC[C@H]1O[C@H](O[C@H]2[C@H](O)[C@@H](O)[C@@H](O[C@H]3[C@H](O)[C@@H](O)[C@@H](O[C@H]4[C@H](O)[C@@H](O)[C@@H](O[C@H]5[C@H](O)[C@@H](O)[C@@H](O[C@H]6[C@H](O)[C@@H](O)[C@@H](O[C@H]7[C@H](O)[C@@H](O)C(O)O[C@@H]7CO)O[C@@H]6CO)O[C@@H]5CO)O[C@@H]4CO)O[C@@H]3CO)O[C@@H]2CO)[C@H](O)[C@@H](O)[C@@H]1O (stereo partly drawn) [Maltoheptaose, maltoheptaose, reference compound] | 0.271 | 93.4% | 6.6% | 100% | – |
| OC[C@H]1O[C@H](O[C@H]2[C@H](O)[C@@H](O)[C@@H](O[C@H]3[C@H](O)[C@@H](O)C(O)O[C@@H]3CO)O[C@@H]2CO)[C@H](O)[C@@H](O)[C@@H]1O (stereo partly drawn) [Maltotriose, maltotriose, reference compound] | 0.623 | 35.0% | 65.0% | 100% | – |
| OC[C@H]1O[C@H](O[C@H]2O[C@H](CO)[C@@H](O)[C@H](O)[C@H]2O)[C@H](O)[C@@H](O)[C@@H]1O [Trehalose, alpha,alpha-trehalose] | 0.006 | – | – | – | Reducing power (in words) [4]: exhibits no reducing power; Coloration relative to glucose and maltose ([1]; 480 nm, with glycine): 0.4-0.6%; Degradation by pig kidney trehalase (in words) (pig kidney trehalase): degraded by the trehalase derived from pig kidney; LD50 [5]: ≥ 50000 mg/kg; Animal death at the possible highest dose (mice): caused no death even in the possible highest dose; Time of maximum blood sugar level after administration ([6]; 20 w/v % aqueous solution): 0.5 to 1 h; Time of maximum insulin level after administration ([6]; 20 w/v % aqueous solution): 0.5 to 1 h; Assimilation (in words) ([6]; glucose as control): trehalose behaved similarly as glucose did; also recorded: readily digested and absorbed and then metabolized and utilized as energy source |
| OC[C@H]1O[C@H](O[C@H]2O[C@H](CO)[C@@H](O)[C@H](O)[C@H]2O)[C@H](O)[C@@H](O)[C@@H]1O [Example A-5] | – | – | – | – | Hygroscopicity (in words) [7]: substantially free of hygroscopicity |
| OC[C@H]1O[C@H](O[C@H]2[C@H](O)[C@@H](O)[C@@H](O[C@H]3[C@H](O)[C@@H](O)[C@@H](O[C@H]4[C@H](O)[C@@H](O)[C@@H](O[C@H]5[C@H](O)[C@@H](O)C(O)O[C@@H]5CO)O[C@@H]4CO)O[C@@H]3CO)O[C@@H]2CO)[C@H](O)[C@@H](O)[C@@H]1O (stereo partly drawn) [Maltopentaose, maltopentaose, reference compound] | 0.369 | 92.7% | 7.3% | 100% | – |
| OC[C@H]1OC(O)[C@H](O)[C@@H](O)[C@@H]1O (stereo partly drawn) [Glucose, glucose] | 1.671 | – | 100.0% | – | Formation of new saccharides from substrate (in words) [2]: No saccharides were newly formed |
| OC[C@H]1O[C@H](O[C@H]2[C@H](O)[C@@H](O)[C@@H](O[C@H]3[C@H](O)[C@@H](O)[C@@H](O[C@H]4[C@H](O)[C@@H](O)[C@@H](O[C@H]5[C@H](O)[C@@H](O)[C@@H](O[C@H]6[C@H](O)[C@@H](O)C(O)O[C@@H]6CO)O[C@@H]5CO)O[C@@H]4CO)O[C@@H]3CO)O[C@@H]2CO)[C@H](O)[C@@H](O)[C@@H]1O (stereo partly drawn) [Maltohexaose, maltohexaose, reference compound] | 0.318 | 93.5% | 6.5% | 100% | – |
| OC[C@H]1O[C@H](O[C@H]2[C@H](O)[C@@H](O)C(O)O[C@@H]2CO)[C@H](O)[C@@H](O)[C@@H]1O (mixture of isomers) [Maltose, maltose] | 0.926 | – | 100.0% | – | Formation of new saccharides from substrate (in words) [2]: No saccharides were newly formed |
| OC[C@H]1O[C@H](O[C@H]2[C@H](O)[C@@H](O)[C@@H](O[C@H]3[C@H](O)[C@@H](O)[C@@H](O[C@H]4[C@H](O)[C@@H](O)C(O)O[C@@H]4CO)O[C@@H]3CO)O[C@@H]2CO)[C@H](O)[C@@H](O)[C@@H]1O (stereo partly drawn) [Maltotetraose, maltotetraose, reference compound] | 0.475 | 85.6% | 14.4% | 100% | – |
